Several values for one entry are separate records, joined by “and”; a condition that tells them apart may be missing. Equal entries are not always repeated. Where two headings read alike, the source gives them in different places.
How the values were obtained:
[1] = Pharmacokinetics and heart quantification after single ip injection; settings: for Dox concentration in heart after 24 h: ip 92 μmol/kg of the labelled drug, ± SD
Protocol: (§1) Time evolution of blood concentration of PhAc-ALGP-Dox and its metabolites (A) or of Doxorubicin (B) after intraperitoneal injection to OF-1 female wild type mice at the equimolar dose of 92 μmol/kg. Results represent the mean concentration±SD (n=3).
(§2) Pharmacokinetic tissue distribution studies were performed using OF-1 mice. Doxorubicin and PhAc-ALGP-Dox were dissolved in saline at the dose of 9.2 mM and administered to mice by intraperitoneal route (10 μL/g, 6 mice per group). At different time points after drug administration (5 min, 30 min, 1 h, 4 h, and 24 h), blood samples were collected from the lateral tail vein of three mice using EDTA-coated microtubes (Starsted). After 24 h, 3 mice per group were sacrificed by cervical dislocation and hearts were collected. They were incised and rinsed carefully in phosphate buffer saline (to eliminate blood in the cardiac cavities), dried on paper and frozen in liquid nitrogen. They were stored until analysis. The hearts were homogenized with an Ultraturrax homogenizer in 1.5 mL water. The protein concentration was measured using the microBCA protein assay (Pierce). The drug tissue quantification was made by HPLC after extraction: 150 μL of acetonitrile was added to the 50 μL samples. Samples were vortexed and centrifuged for 10 min at 13 000 rpm at room temperature. Supernatant was collected. Samples were buffered by addition of 200 mM formiate buffer pH 4.5 (1 V sample supernatant+3 V buffer) before HPLC analysis (fluo detection ex=235 nm em=560 nm).

[2] = in vivo; settings: female, OF-1, mouse, iv, 86.2 umol/kg
Protocol: Time evolution of plasma concentration (A, B) and of cardiac tissue concentration (C, D) of Doxorubicin or PhAc-ALGP-Dox and its metabolites after i.v. bolus injection to OF-1 female wild type mice at the dose of 86.2 μmol/kg. Results represent the mean concentration±SD (n=3).
Pharmacokinetic tissue distribution studies were performed using OF-1 mice. […] At different time points after drug administration (5 min, 30 min, 1 h, 4 h, 7 h, 16 h and 24 h) 3 mice per group were sacrificed by cervical dislocation and blood and heart tissue were collected. Hearts were incised and rinsed carefully in phosphate buffer saline (to eliminate blood in the cardiac cavities), dried on paper and frozen in liquid nitrogen. They were stored until analysis. Blood samples were centrifuged (10 min, 2000 g, 4° C.) to separate the plasma fraction, which was stored for analysis. The hearts were homogenized with an Ultraturrax homogenizer in 1.5 mL water. The protein concentration was measured using the microBCA protein assay (Pierce). The drug tissue quantification was made by HPLC after extraction: 150 μL of acetonitrile was added to the 50 μL samples. Samples were vortexed and centrifuged for 10 min at 13 000 rpm at room temperature. Supernatant was collected. Samples were buffered by addition of 200 mM formiate buffer pH 4.5 (1 V sample supernatant+3 V buffer) before HPLC analysis (fluo detection ex=235 nm em=560 nm).

[3] = tested on: orthotopic HCT116 human colon tumors; experiment: Orthotopic HCT116 colon carcinoma tumor model; format: in vivo, SCID mice
Protocol: FIG. 14. Evaluation of the antitumor effect of PhAc-ALGP-dox in SCID mice bearing orthotopic HCT116 human colon tumors. SCID mice were injected orthotopically (in the caecum) with human HCT116 colon tumor cells. One group was treated with saline while groups 2 and 3 received 10 intraperitoneal injections (2Q1D5) of 35 and 50 μmol/kg of PhAc-ALGP-doxorubicin. Primary tumor weights were recorded on day 34 post cell inoculation.
FIG. 15. Evaluation of the antimetastatic effect (in liver) of PhAc-ALGP-dox in SCID mice bearing orthotopic HCT116 human colon tumors. SCID mice were injected orthotopically (in the caecum) with human HCT116 colon tumor cells. One group was treated with saline while groups 2 and 3 received 10 intraperitoneal injections (2Q1D5) of 35 and 50 μmol/kg of PhAc-ALGP-doxorubicin. Liver metastases were recorded on day 34 post cell inoculation.
HCT116 cells were subcutaneously injected into SCID mice. Once xenografts were established, they were excised and orthotopically implanted into the ceacum of other female γ-irradiated SCID mice using microsurgical techniques. On day 12 after the cancer cells injection, the mice were randomized in four groups of 16. […] On day 34 after injection into the caecum of colonic cancer cells the animals were sacrificed, the number of metastases was counted macroscopically and the primary tumors weighted.

[4] = tested on: MX-1 mammary carcinoma human xenografts; experiment: Efficacy after repeated iv bolus, MX-1 xenograft; format: in vivo, NMRI nude mice; settings: day 29
Protocol: FIG. 3. […] Results represent the mean body weight and tumor volume evolution±SEM (n=4).
The anti-tumor activity of doxorubicin and PhAc-ALGP-Dox was tested in models of athymic mice (nude/nude NMRI) carrying ectopic xenografts of human LS-174T colon carcinoma or MX-1 mammary carcinoma.
LS174T and MX-1 tumors were established by a subcutaneous implantation of cells (3×10^6 and 10^7 cells injected respectively) in the right flank of 6 weeks old female NMRI nude mice (Harlan). […] The day of the first injection animals were randomly assigned to groups of 4 animals. […] Compounds were delivered by bolus intravenous injection (i.v.) in the lateral tail vein at 10 μl/g. During the course of the experiment, clinical signs, body weight and tumor volume were controlled twice a week. Results are presented as the evolution of mean tumor volume as a function of time. Optimal T/C (ratio of mean tumor volume of treated versus control mice) values were used as a measure of treatment efficacy.

[5] = tested on: B16-F10 murine melanoma cells; format: in vivo, C57BL6 mice
Protocol: FIG. 11. Evaluation of PhAc-ALGP-Dox efficacy in comparison with Doxorubicin in the B16-F10 lung metastatic melanoma model. Graph on the left side represents quantification of melanin of lung metastasis at day 14 after injection of B16F10 tumor cells. Graph on the right side show the survival curves.
The efficacy of PhAc-ALGP-Dox was tested in the well described B16-F10 lung metastatic melanoma model. For that purpose, […] B16-F10 murine melanoma cells were injected in the lateral vein of C57BL6 mice. Treatments started three days after cells injection. Animal received twice a day (at 5-6 h interval) for 5 consecutive days intraperitoneal injections (total 10 injections/mouse) of saline or of Doxorubicin at 2 and 3.5 μmol/kg or of PhAc-ALGP-Dox at 50 μmol/kg. Five mice per group were sacrificed at day 14 after cells injection. Lungs were collected and processed for melanin quantification (Molecular Pharmacology, 74: 1576-1586, 2008). Survival was determined by observation of the remaining mice.

[6] = tested on: LoVo colon carcinoma human xenografts; experiment: Efficacy, similar study, ip 2Q1D5×2W (Table 9)
Protocol: The efficacy of PhAc-ALGP-Dox was assessed using athymic mice (nude/nude NMRI) carrying ectopic xenograft of human LoVo colon carcinoma or of MX-1 mammary carcinoma in comparison with free Doxorubicin. Tumors were established by a subcutaneous implantation of cells (10^7 cells) in the right flank of 6 weeks old female NMRI nude mice (Harlan). Treatments were administered when the tumors reached a size of 150-200 mm^3 (measured using a caliper and calculated with the following formula: […]). Animals were randomly assigned to groups of 4 to-6 animals. […] Compounds were delivered by bolus intraperitoneal injection (ip) at 10 μl/g. During the course of the experiment, clinical signs, body weight and tumor volume were controlled twice a week. Results are presented as the evolution of mean tumor volume as a function of time. Optimal T/C (ratio of mean tumor volume of treated versus control mice) values and TGD (tumor growth delay in reaching 1000 mm^3) were used as a measure of treatment efficacy. […] A statistical analysis was performed at day 22 using the Mann Whitney t test of the Graph Pad Prism 5.0 software.

[7] = in vivo; settings: female, OF-1, mouse, ip, 92 umol/kg
Protocol: as §1, §2

[8] = Protocol: FIG. 7. Toxicity study of PhAc-ALGP-Dox after single and multiple intraperitoneal (ip) injections in OF-1 mice. Animals were treated with PhAc-ALGP-Dox with different treatment schedules: at 56 μmol/kg 5× (Q1D5 -*-); at 28 μmol/kg 10× (2Q1D5 -▪-); at 560 μmol/kg 1× (-□-); at 112 μmol/kg 5× (Q1D5 -▴-); at 56 μmol/kg 10× (2Q1D5 -×-).
PhAc-ALGP-Dox was dissolved in saline and administered by single or multiple intraperitoneal (ip) injections […] of OF-1 mice (10 μl/g). PhAc-ALGP-Dox was administered at similar cumulative doses of 280 and 560 μmol/kg following different injections schedules: single ip injection; 5 consecutive daily ip injections at 56 and 112 μmol/kg or twice a day for five consecutive days at the doses of 28 and 56 μmol/kg. The in vivo toxicity was evaluated by monitoring the body weight.

For `COc1cccc2c1C(=O)c1c(O)c3c(c(O)c1C2=O)C[C@@](O)(C(=O)CO)C[C@@H]3O[C@H]1C[C@H](N)[C@H](O)[C@H](C)O1` [Doxorubicin, reference compound], the “percentage of the injected dose reaching the blood compartment in the first five minutes” value ([1]; ip 92 μmol/kg) was “about 2.5%”, the “Dox concentration in heart after 24 h” value [1] was 253 ± 60 pmol/mg protein and the AUC [2] was 63 µM·h. The mortality ([3]; 2 μmol/kg ip 2Q1D5, SCID mice) was “all animals died within 10 days”, the “TGI [% (day)]” value ([4]; 8 μmol/kg iv day 0, 3, 6, 9) was 65 (29) % and the median survival ([5]; 2 μmol/kg ip 2Q1D5) was 24 days. For the same molecule, the “amount of melanin in lung homogenate” value ([5]; 2 μmol/kg ip 2Q1D5, day 14) was 183 mg/mL, the median survival ([5]; 3.5 μmol/kg ip 2Q1D5) was 28 days and the “amount of melanin in lung homogenate” value ([5]; 3.5 μmol/kg ip 2Q1D5, day 14) was 53 mg/mL. The “TGD” value ([6]; 1 μmol/kg ip 2Q1D5×2W) was 5 days, the mortality ([6]; 1 μmol/kg ip 2Q1D5×2W) was “one dead mouse was found at day 29” and the “TGI [% (day)]” value ([6]; 1 μmol/kg ip 2Q1D5×2W, day 29) was 44(29), %. The “TGD” value ([6]; 1.5 μmol/kg ip 2Q1D5×2W) was 9 days, the “TGI [% (day)]” value ([6]; 1.5 μmol/kg ip 2Q1D5×2W, day 29, n = 1) was 65(29), % and the AUC [7] was 70.3 µM·h. The maximum tolerated dose ([8]; OF-1, mouse, in vivo, ip) was 3 µmol/kg.
In the case of `COc1cccc2c1C(=O)c1c(O)c3c(c(O)c1C2=O)CC(O)(C(=O)CO)CC3OC1CC(NC(=O)C2CCCN2C(=O)CNC(=O)C(CC(C)C)NC(=O)C(C)NC(=O)CP(=O)(O)O)C(O)C(C)O1` (centres unmarked) [PhAc-ALGP-Dox, PhAc-ALGP-doxorubicin], the “percentage of the injected dose reaching the blood compartment in the first five minutes” value ([1]; ip 92 μmol/kg) is reported as “about 1%”, the “time after which the conjugate was no longer detected in blood” value ([1]; ip 92 μmol/kg) is reported as 4 h and the “Doxorubicin cardiac accumulation versus Doxorubicin injection (times less)” value ([1]; ip 92 μmol/kg equimolar, 24 h) is reported as 19 times. The “Dox concentration in heart after 24 h” value [1] was 13 ± 3 pmol/mg protein, the AUC [2] was 97 µM·h and the “number of hepatic metastases” value ([3]; 30 μmol/kg, day 34) was 24. For the same molecule, the primary tumor weight ([3]; 30 μmol/kg, day 34) was 0.69 g, the “mice surviving 34 days” value ([3]; 35 μmol/kg ip 2Q1D5, groups of 16) was 12 mice and the “mice surviving 34 days” value ([3]; 50 μmol/kg ip 2Q1D5, groups of 16) was 9 mice. For the same molecule, the “mean number of hepatic metastases” value ([3]; 50 μmol/kg, day 34) was 1.78, the primary tumor weight ([3]; 50 μmol/kg, day 34) was 0.44 g and the “TGI [% (day)]” value ([4]; 100 μmol/kg iv day 0, 3, 6, 9) was 60 (29) %. The median survival ([5]; 50 μmol/kg ip 2Q1D5) was 36 days, the “amount of melanin in lung homogenate” value ([5]; 50 μmol/kg ip 2Q1D5, day 14) was 16 mg/mL and the “TGD” value ([6]; 25 μmol/kg ip 2Q1D5×2W) was 9 days. For the same molecule, the “TGI [% (day)]” value ([6]; 25 μmol/kg ip 2Q1D5×2W, day 29) was 54(29), %, the “TGD” value ([6]; 35 μmol/kg ip 2Q1D5×2W) was 9 days and the “TGI [% (day)]” value ([6]; 35 μmol/kg ip 2Q1D5×2W, day 29) was 53(29), %. The “TGD” value ([6]; 50 μmol/kg ip 2Q1D5×2W) was 22 days, the “maximum body weight loss” value ([6]; 50 μmol/kg ip 2Q1D5×2W, day 9) was 13% and the “TGI [% (day)]” value ([6]; 50 μmol/kg ip 2Q1D5×2W, day 29) was 73% and 73(29), %. The AUC [7] was 44.2 µM·h, the “body weight loss (in words)” value ([8]; 56 μmol/kg, 10 ip injections (twice a day for five consecutive days)) was “No body weight loss” and the “maximum body weight loss” value ([8]; 112 μmol/kg, five consecutive daily ip injections, day 11) was 22.5%. For the same molecule, the “toxicity (in words)” value ([8]; 560 μmol/kg single ip injection) was “very toxic”, the body weight lost ([8]; 560 μmol/kg single ip injection, in one week) was 25% and the “body weight loss (in words)” value ([8]; cumulative dose 280 μmol/kg ip, whatever the injection schedule) was “no body weight loss”. For the same molecule, the “times less toxic than doxorubicin” value ([8]; ip twice a day for five consecutive days) was “about 15 times”.
